We go through two compounds from patent US20110104256A1, “METHODS FOR TREATING OR PREVENTING COLORECTAL CANCER” (priority 2008, published 2011).

Marks after values point to notes of the source that are not given here.

The experiment relates to WiDr human colorectal adenocarcinoma cells. The experiment in a line: Inhibition of colorectal tumor growth in WiDr xenograft model. Format: in vivo, nude mouse (nu/nu). To be noted: for % Growth Inhibition: WiDr xenograft, nude mice. The source says:
In these experiments, 5 million WiDr human colorectal adenocarcinoma cells, mixed 1:1 with Matrigel, were inoculated subcutaneously to the flank of each nude mouse (nu/nu).

Setting [1] is: Day 10 post inoculation, 0.5 mg anti-IGF1R IP 2x/week, 40 mpk Sunitinib PO QD (Table 6).
Where [2] appears, read: Day 14 post inoculation, 0.5 mg anti-IGF1R IP 2x/week, 40 mpk Sunitinib PO QD (Table 6).
Setting [3] is: Day 17 post inoculation, 0.5 mg anti-IGF1R IP 2x/week, 40 mpk Sunitinib PO QD (Table 6).
Where [4] appears, read: Day 21 post inoculation, 0.5 mg anti-IGF1R IP 2x/week, 40 mpk Sunitinib PO QD (Table 6).
Where [5] appears, read: Day 24 post inoculation, 0.5 mg anti-IGF1R IP 2x/week, 40 mpk Sunitinib PO QD (Table 6).
Setting [6] is: Day 28 post inoculation, 0.5 mg anti-IGF1R IP 2x/week, 40 mpk Sunitinib PO QD (Table 6).
Where [7] appears, read: Day 35 post inoculation, 0.5 mg anti-IGF1R IP 2x/week, 40 mpk Sunitinib PO QD (Table 6).
[8] abbreviates: 0.5 mg anti-IGF1R IP 2x/week, 40 mpk Sunitinib PO QD (Table 5).

As for “anti-IGF1R: anti-IGF1R antibody with 15H12/19D12 immunoglobulin light chain-F (LCF, κ) and heavy chain-A (HCA, γ1)”, the Mean tumor volume by setting is: under setting [1], 93.1 mm^3; (Day 10 post inoculation, 0.5 mg anti-IGF1R, 10 mpk Leucovorin/60 mpk 5-FU, IP 2x/week (Table 3)) 93.1 mm^3; under setting [2], 148.0 mm^3; (Day 14 post inoculation, 0.5 mg anti-IGF1R, 10 mpk Leucovorin/60 mpk 5-FU, IP 2x/week (Table 3)) 148.0 mm^3; under setting [3], 192.0 mm^3; (Day 17 post inoculation, 0.5 mg anti-IGF1R, 10 mpk Leucovorin/60 mpk 5-FU, IP 2x/week (Table 3)) 192.0 mm^3. For the same compound, the Mean tumor volume runs as follows: under setting [4], 254.1 mm^3; (Day 21 post inoculation, 0.5 mg anti-IGF1R, 10 mpk Leucovorin/60 mpk 5-FU, IP 2x/week (Table 3)) 254.1 mm^3; under setting [5], 317.0 mm^3; (Day 24 post inoculation, 0.5 mg anti-IGF1R, 10 mpk Leucovorin/60 mpk 5-FU, IP 2x/week (Table 3)) 317.0 mm^3; under setting [6], 403.1 mm^3; (Day 28 post inoculation, 0.5 mg anti-IGF1R, 10 mpk Leucovorin/60 mpk 5-FU, IP 2x/week (Table 3)) 403.1 mm^3. The Mean tumor volume (Day 31 post inoculation, 0.5 mg anti-IGF1R IP 2x/week, 40 mpk Sunitinib PO QD (Table 6)) is 474.5 mm^3; the Mean tumor volume (Day 31 post inoculation, 0.5 mg anti-IGF1R, 10 mpk Leucovorin/60 mpk 5-FU, IP 2x/week (Table 3)) came out at 474.5 mm^3; the Mean tumor volume under setting [7] was 577.6 mm^3; the Mean tumor volume (Day 35 post inoculation, 0.5 mg anti-IGF1R, 10 mpk Leucovorin/60 mpk 5-FU, IP 2x/week (Table 3)) is recorded as 577.6 mm^3. Besides, the “% Growth Inhibition” value stood at 30% under setting [8] and 30% (0.5 mg anti-IGF1R IP 2x/week, 60 mpk 5-FU/10 mpk Leucovorin IP 2x/week (Table 2)).
Turning to `CCN(CC)CCNC(=O)c1c(C)[nH]c(/C=C2\C(=O)Nc3ccc(F)cc32)c1C` [Sunitinib, sunitinib, reference compound], the Mean tumor volume is, setting by setting: under setting [1], 95.8 mm^3; under setting [2], 125.4 mm^3; under setting [3], 143.1 mm^3; under setting [4], 175.6 mm^3; under setting [5], 194.8 mm^3; under setting [6], 205.9 mm^3. Also, the Mean tumor volume under setting [7] is given as 238.6 mm^3. Under setting [8], the “% Growth Inhibition” value is given as 79^a %.
